# Measured values: patent publication US20230064990A1, “DOSING REGIMENS AND METHODS FOR TREATING CANCER” (Panbela Therapeutics, Inc., priority 2020, published 2023)
# Tests used:
# [1] = Phase 1 monotherapy dose escalation study, pharmacokinetics; type: in vivo, human; conditions: 0.05-0.8 mg/kg subcutaneous; Days 1 and 18 of cycle 1
# [2] = tested on: locally advanced or metastatic PDA; test: Phase 1 monotherapy dose escalation study, efficacy (RECIST, overall survival); type: in vivo, human
# Protocol: Efficacy was assessed by RECIST criteria and overall survival.
# [3] = tested on: human L3.6pl pancreatic cancer cells; test: Orthotopic implantation of L3.6pl pancreatic cancer cells into nude mice; conditions: for Median survival: control group 21 days
# Protocol: These studies examined the anti-neoplastic effects of subcutaneous administration of (S,S)-(HO)2DEHSPM following orthotopic implantation of human L3.6pl pancreatic cancer cells into the pancreas of nude mice.
# L3.6pl cells were injected into the pancreas of nude mice; treatment was initiated by group (n=10/group planned) 7-10 days later following establishment of tumors:
# Study 1: saline (control), (S,S)-(HO)2DEHSPM (25 mg/kg), (S,S)-(HO)2DEHSPM (50 mg/kg), and (S,S)-(HO)2DEHSPM (100 mg/kg) daily (QD) for 4 to 6 weeks (wks).
# Study 2: saline (control), (S,S)-(HO)2DEHSPM (25 mg/kg QD), (S,S)-(HO)2DEHSPM (25 mg/kg 3×/wk), (S,S)-(HO)2DEHSPM (15 mg/kg 3×/wk), and (S,S)-(HO)2DEHSPM (5 mg/kg 3×/wk) for 4 to 6 wks.
# Study 3: saline (control), gemcitabine (GEM) (100 mg/kg 2×/wk, intraperitoneally), (S,S)-(HO)2DEHSPM (25 mg/kg 3×/wk), and (S,S)-(HO)2DEHSPM+GEM for 4 to 6 wks.
# [4] = Repeat doses in healthy beagles; type: in vivo
# Protocol: This effect on the exocrine pancreas in dogs (causing nearly complete ablation of the exocrine pancreas) was an unexpected finding in development of this polyamine analogue as a therapeutic agent. It occurred in a dose-dependent manner several weeks after drug dosing was discontinued in dogs. Beginning 5 to 6 weeks post last dose, the animals at the high-dose levels rapidly lost weight and their serum trypsin-like immunoreactivity decreased to <2.5 μg/L, which is diagnostic for exocrine pancreatic insufficiency in this species. In addition, fat absorption tests became abnormal and hepatic transaminase values increased. The pancreata of euthanized animals were grossly atrophied with diffuse moderate to severe pancreatic atrophy, especially of the acini. However, the islets appeared both histologically intact and functional based on serum glucose levels and oral glucose tolerance tests.
# [5] = Phase 1 monotherapy dose escalation study, safety and tolerability
# Protocol: Safety and tolerability were evaluated by clinical and laboratory assessments. PK was evaluated on Days 1 and 18 of cycle 1. Efficacy was assessed by RECIST criteria and overall survival.
# [6] = tested on: six human PDA cell lines; test: Cell proliferation in six human PDA cell lines; type: cell-based
# Protocol: AsPC-1, BxPC-3, Capan-1, HPAF-II, MIA PaCa-2 and PANC-1 cells were seeded in 96-well plates and allowed to adhere overnight. After 24 h fresh media was added containing 0.5-10 μM concentrations of (S,S)-(HO)2DEHSPM alone or +0.5 μM GEM, +5 nM NAB, or + both, or containing GEM, NAB or GEM+NAB alone. Cell proliferation was measured in triplicate 24, 48, 72 and 96 h post-treatment and IC50 values were calculated.
# [7] = Phase 1a/1b Cohort 4, shortened daily/periodic dosing regimen, liver toxicity; type: in vivo, human; conditions: Cohort 4 regimen vs reference dosing regimen, particularly Cohort 3
# Protocol: As part of the same study described in Example 4, one cohort of patients (Cohort 4) was administered a combination shortened daily dosing regimen/periodic dosing regimen and liver toxicities were compared to the reference dosing regimen described in Example 4.
# Cohort 4 was administered 0.4 mg/kg/day of (S,S)-(HO)2DEHSPM for 5 consecutive days (for a total of 5 doses/cycle) beginning on day 1 (i.e. days 1-5) of each of Cycles 1 and 2. Thereafter Cohort 4 was administered 0.4 mg/kg/day of (S,S)-(HO)2DEHSPM on Days 1, 8 and 15 beginning on day 1 of Cycle 3 (for a total of 3 doses per cycle) and continuing for each cycle thereafter. Cohort 4 patients were treated for 3 to 6 or more total cycles depending on the individual patient's tolerance of treatment.
# [8] = Study 3, compared with controls, GEM 100 mg/kg 2×/wk ip, (S,S)-(HO)2DEHSPM 25 mg/kg 3×/wk
smiles,measurement,setting,value
"CCNCCC(O)CNCCCCNCC(O)CCNCC [(S,S)-(HO)2DEHSPM, (6S,15S)-3,8,13,18-teraazaicosane-6,15-diol]",Plasma Cmax and AUC0-t versus dose,[1],increased linearly with dose
same,Stable disease,"[2]; cohort 3 (0.2 mg/kg), N=4",2 patients
same,Median survival,"[2]; cohort 3 (0.2 mg/kg), N=4, heavily pre-treated PDA patients",5.9 months
same,Stable disease,"[2]; cohort 4 (0.4 mg/kg), N=7",2 patients
same,Stable disease,"[2]; cohort 5 (0.8 mg/kg), N=10",4 patients
same,reduction in pancreas weight,"[3]; Study 1, 25 mg/kg QD subcutaneous, 4 to 6 wks, tumor bearing mice",82.9%
same,toxicity / deaths,"[3]; Study 1, 50 and 100 mg/kg QD",earlier deaths and proved to be toxic
same,decreases in pancreas weight and tumor volume,"[3]; Study 2, 5 mg/kg 3×/wk",no decreases were noted
same,decrease in pancreas weight,"[3]; Study 2, 15 mg/kg 3×/wk",20.1%
same,decrease in tumor volume,"[3]; Study 2, 15 mg/kg 3×/wk",52.6%
same,reduction in pancreas weight,"[3]; Study 2, 25 mg/kg 3×/wk",47.8%
same,reduction in tumor volume,"[3]; Study 2, 25 mg/kg 3×/wk",66.6%
same,Median survival,"[3]; Study 2, 25 mg/kg 3×/wk",42 days
same,reduction in pancreas weight,"[3]; Study 2, 25 mg/kg QD",72.7%
same,reduction in tumor volume,"[3]; Study 2, 25 mg/kg QD",81.4%
same,Median survival,"[3]; Study 2, 25 mg/kg QD",32 days
same,decreases in body weight,"[3]; Study 3, GEM 100 mg/kg 2×/wk ip, (S,S)-(HO)2DEHSPM 25 mg/kg 3×/wk, 4 to 6 wks",35.6%
same,decreases in pancreas weight,[3]; [8],58.8%
same,decreases in tumor volume,[3]; [8],58.4%
same,effect on exocrine pancreas,[4]; cumulative exposure to repeat doses,exocrine pancreatic atrophy with exocrine pancreatic insufficiency without an inflammatory response and with preservation of islet cell function
same,serum trypsin-like immunoreactivity,"[4]; high-dose levels, beginning 5 to 6 weeks post last dose",< 2.5 µg/L
same,drug-related bone marrow suppression or peripheral neuropathy,[5]; any dose,No drug-related bone marrow suppression or peripheral neuropathy was seen at any dose
same,focal pancreatitis at the site of the tumor,"[5]; cohort 4 (0.4 mg/kg), at 2.3 months",one patient in cohort 4 developed focal pancreatitis
same,DLTs,"[5]; cohort 5 (0.8 mg/kg), N=10",Three patients in cohort 5 developed serious adverse events considered dose limiting toxicities
same,DLTs,[5]; cohorts 1-4 (0.05-0.4 mg/kg),No DLTs occurred
same,drug-related serious adverse events (SAEs) or dose limiting toxicities (DLTs),[5]; up to 0.4 mg/kg/day Monday through Friday×3 weeks (TCD~6 mg/kg per 8 week cycle),No drug-related serious adverse events (SAEs) or dose limiting toxicities (DLTs) were observed
same,anti-proliferative effect,"[6]; 0.5-10 μM, maximal inhibition most often with 10 μM",anti-proliferative effect in all cell lines
same,"inhibition by (S,S)-(HO)2DEHSPM alone compared with GEM+NAB","[6]; ASPC-1, BxPC-3 and Capan-1 cells, p<0.005",greater inhibition than GEM+NAB
same,severe liver toxicities compared to cohorts of Example 4,[7],unexpectedly reduced or eliminated
